# In US11000033B2, “Ketone or oxime compound, and herbicide” (NISSAN CHEMICAL CORPORATION, priority 2014, dated 2021):
# What was measured:
# Assay type in all cases: in vivo
# Scirpus juncoides = test: Test Example 1: herbicidal activity, application before weed generation in submerged conditions (symbol B); conditions: application herbicide amount 320 g/ha
# Outline: (§1)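 Pre-emergence, paddy conditions: emulsifiable formulation diluted in water, dosed onto floodwater (4 cm depth) on sowing day. Alluvial soil; weeds sown mixed; rice transplanted at 2.5-leaf stage. Greenhouse 25–30 °C, 3 wk. Score 0–5 (5 = ≥90% kill, 0 = ≤5%).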
# Monochoria vaginalis = test: Test Example 1: herbicidal activity, application before weed generation in submerged conditions (symbol C); conditions: application herbicide amount 320 g/ha
# Outline: as §1
# Cyperus difformis = test: Test Example 3: herbicidal effect by foliage application, Wagner pot (symbol E); conditions: application herbicide amount 320 g/ha
# Outline: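 Rating at 3 weeks post-spray, by defined criteria. Treatment: emulsion diluted with water to a predetermined amount, applied evenly to foliage of 14-day-old plants raised in alluvial soil flooded 0.1–0.5 cm deep at 25–30 °C, rice co-sown.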
# Amaranthus retroflexus = test: Test Example 4: herbicidal effect by soil treatment (symbol N); conditions: 320 g/ha
# Outline: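 Seeds were sown in sterilized diluvial soil, covered with about 1.5 cm of soil, and the soil surface was sprayed with a water-diluted emulsion of the compound at a predetermined rate. Plants grew in a greenhouse at 25° C. to 30° C.; effects were scored visually 3 weeks after application.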
# corn = test: Test Example 4: effect on crop by soil treatment (symbol c); conditions: 320 g/ha
# Outline: (§2)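 Crop seed is sown in spots together with several weed species in a box of sterilized diluvial soil. It is covered by about 1.5 cm of soil and kept in a greenhouse held between 25° C. and 30° C.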
# beet [1] = test: Test Example 4: effect on crop by soil treatment (symbol f); conditions: 320 g/ha
# Outline: as §2
# rapeseed [2] = test: Test Example 4: effect on crop by soil treatment (symbol g); conditions: 320 g/ha
# Outline: as §2
# Setaria viridis = test: Test Example 5: herbicidal effect by foliage application, plastic box (symbol G); conditions: 320 g/ha, 3 weeks after application
# Outline: (§3)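 Emulsion formulation, diluted with water to the intended rate, was applied uniformly to leaves by small sprayer. Recipients were 14-day greenhouse-grown seedlings (25° C. to 30° C.). Assessment followed at 3 weeks.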
# Lolium multiflorum Lam. = test: Test Example 5: herbicidal effect by foliage application, plastic box (symbol K); conditions: 320 g/ha, 3 weeks after application
# Outline: as §3
# Apera spica-venti = test: Test Example 5: herbicidal effect by foliage application, plastic box (symbol L); conditions: 320 g/ha, 3 weeks after application
# Outline: as §3
# Galium spurium = test: Test Example 5: herbicidal effect by foliage application, plastic box (symbol Q); conditions: 320 g/ha, 3 weeks after application
# Outline: as §3
# wheat = test: Test Example 5: effect on crop by foliage application, plastic box (symbol e); conditions: 320 g/ha, 3 weeks after application
# Outline: (§4)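 Diluvial soil, sterilized and boxed (21 × 13 × 7 cm), received spot-sown seed covered by about 1.5 cm soil; plants were then greenhouse-grown at 25–30° C.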
# beet [3] = test: Test Example 5: effect on crop by foliage application, plastic box (symbol f); conditions: 320 g/ha, 3 weeks after application
# Outline: as §4
# rapeseed [4] = test: Test Example 5: effect on crop by foliage application, plastic box (symbol g); conditions: 320 g/ha, 3 weeks after application
# Outline: as §4
Compound,"Herbicidal effect grade, B: Scirpus juncoides (Scirpus juncoides)","Herbicidal effect grade, C: Monochoria vaginalis (Monochoria vaginalis)","herbicidal effect on E, grade 0-5 (Cyperus difformis)","N: Amaranthus retroflexus, herbicidal effect grade (Amaranthus retroflexus)","c: corn, effect grade on crop (corn)","f: beet, effect grade on crop (beet [1])","g: rapeseed, effect grade on crop (rapeseed [2])","G: Setaria viridis, herbicidal effect (criteria 0-5) (Setaria viridis)","K: Lolium multiflorum Lam., herbicidal effect (criteria 0-5) (Lolium multiflorum Lam.)","L: Apera spica-venti, herbicidal effect (criteria 0-5) (Apera spica-venti)","Q: Galium spurium, herbicidal effect (criteria 0-5) (Galium spurium)","e: wheat, effect on crop (criteria 0-5) (wheat)","f: beet, effect on crop (criteria 0-5) (beet [3])","g: rapeseed, effect on crop (criteria 0-5) (rapeseed [4])"
CON=C(C)CC1CC(OS(=O)(=O)N(C)C)=C(c2c(C)cc(C)cc2C)C1=O (stereo not shown) [1-122],5 (Herbicidal ratio of 90% or more (almost completely withered)),0 (Herbicidal ratio of 5% or lower (almost no effect)),5 (Herbicidal ratio of 90% or more (almost completely withered)),0 (Herbicidal ratio of 5% or lower (almost no effect)),2 (Herbicidal ratio of 20% or higher and lower than 40%),0 (Herbicidal ratio of 5% or lower (almost no effect)),0 (Herbicidal ratio of 5% or lower (almost no effect)),5 (Herbicidal ratio of 90% or more (almost completely withered)),5 (Herbicidal ratio of 90% or more (almost completely withered)),5 (Herbicidal ratio of 90% or more (almost completely withered)),0 (Herbicidal ratio of 5% or lower (almost no effect)),4 (Herbicidal ratio of 70% or higher and lower than 90%),0 (Herbicidal ratio of 5% or lower (almost no effect)),5 (Herbicidal ratio of 90% or more (almost completely withered))
CC(CC1CC(O)=C(c2c(C)cc(C)cc2C)C1=O)=NOCC(N)=O (stereo not shown) [1-124],0 (Herbicidal ratio of 5% or lower (almost no effect)),0 (Herbicidal ratio of 5% or lower (almost no effect)),0 (Herbicidal ratio of 5% or lower (almost no effect)),0 (Herbicidal ratio of 5% or lower (almost no effect)),0 (Herbicidal ratio of 5% or lower (almost no effect)),0 (Herbicidal ratio of 5% or lower (almost no effect)),0 (Herbicidal ratio of 5% or lower (almost no effect)),2 (Herbicidal ratio of 20% or higher and lower than 40%),4 (Herbicidal ratio of 70% or higher and lower than 90%),3 (Herbicidal ratio of 40% or higher and lower than 70%),0 (Herbicidal ratio of 5% or lower (almost no effect)),3 (Herbicidal ratio of 40% or higher and lower than 70%),0 (Herbicidal ratio of 5% or lower (almost no effect)),4 (Herbicidal ratio of 70% or higher and lower than 90%)
CC(CC1CC(O)=C(c2c(C)cc(C)cc2C)C1=O)=NOCC[S+](C)[O-] (stereo not shown) [1-125],0 (Herbicidal ratio of 5% or lower (almost no effect)),1 (Herbicidal ratio of 5% or higher and lower than 20%),2 (Herbicidal ratio of 20% or higher and lower than 40%),0 (Herbicidal ratio of 5% or lower (almost no effect)),2 (Herbicidal ratio of 20% or higher and lower than 40%),0 (Herbicidal ratio of 5% or lower (almost no effect)),0 (Herbicidal ratio of 5% or lower (almost no effect)),5 (Herbicidal ratio of 90% or more (almost completely withered)),5 (Herbicidal ratio of 90% or more (almost completely withered)),5 (Herbicidal ratio of 90% or more (almost completely withered)),3 (Herbicidal ratio of 40% or higher and lower than 70%),5 (Herbicidal ratio of 90% or more (almost completely withered)),0 (Herbicidal ratio of 5% or lower (almost no effect)),3 (Herbicidal ratio of 40% or higher and lower than 70%)
CON=C(C)CC1CC(OC(=O)N(C)CCCCCl)=C(c2c(C)cc(C)cc2C)C1=O (stereo not shown) [1-126],0 (Herbicidal ratio of 5% or lower (almost no effect)),0 (Herbicidal ratio of 5% or lower (almost no effect)),2 (Herbicidal ratio of 20% or higher and lower than 40%),0 (Herbicidal ratio of 5% or lower (almost no effect)),0 (Herbicidal ratio of 5% or lower (almost no effect)),0 (Herbicidal ratio of 5% or lower (almost no effect)),0 (Herbicidal ratio of 5% or lower (almost no effect)),4 (Herbicidal ratio of 70% or higher and lower than 90%),5 (Herbicidal ratio of 90% or more (almost completely withered)),3 (Herbicidal ratio of 40% or higher and lower than 70%),0 (Herbicidal ratio of 5% or lower (almost no effect)),0 (Herbicidal ratio of 5% or lower (almost no effect)),0 (Herbicidal ratio of 5% or lower (almost no effect)),4 (Herbicidal ratio of 70% or higher and lower than 90%)
C=C(C)CN(CC)C(=O)OC1=C(c2c(C)cc(C)cc2C)C(=O)C(CC(C)=NOC)C1 (stereo not shown) [1-130],0 (Herbicidal ratio of 5% or lower (almost no effect)),0 (Herbicidal ratio of 5% or lower (almost no effect)),4 (Herbicidal ratio of 70% or higher and lower than 90%),0 (Herbicidal ratio of 5% or lower (almost no effect)),0 (Herbicidal ratio of 5% or lower (almost no effect)),0 (Herbicidal ratio of 5% or lower (almost no effect)),0 (Herbicidal ratio of 5% or lower (almost no effect)),5 (Herbicidal ratio of 90% or more (almost completely withered)),5 (Herbicidal ratio of 90% or more (almost completely withered)),5 (Herbicidal ratio of 90% or more (almost completely withered)),0 (Herbicidal ratio of 5% or lower (almost no effect)),2 (Herbicidal ratio of 20% or higher and lower than 40%),0 (Herbicidal ratio of 5% or lower (almost no effect)),5 (Herbicidal ratio of 90% or more (almost completely withered))
